According to US8455475B2 (Gruenenthal GmbH, priority 2009, dated 2013):
Structures can show the parent of a compound that is named as a salt.

Legend:
[1] = molecular target: T1, human B1R (bradykinin receptor 1) (Homo sapiens, UniProt P46663); assay: FLIPR Ca2+ assay (Fluo-4) on CHO K1 cells stably transfected with the human B1R gene (hB1R cells): % inhibition at 10 μM / IC50, agonist Lys-Des-Arg9-bradykinin; assay type: cell-based; settings: CHO-K1, human B1R
T1 construct: expressed in transfected cells; host or cells: CHO K1 cells
T1 sequence (P46663 1-353): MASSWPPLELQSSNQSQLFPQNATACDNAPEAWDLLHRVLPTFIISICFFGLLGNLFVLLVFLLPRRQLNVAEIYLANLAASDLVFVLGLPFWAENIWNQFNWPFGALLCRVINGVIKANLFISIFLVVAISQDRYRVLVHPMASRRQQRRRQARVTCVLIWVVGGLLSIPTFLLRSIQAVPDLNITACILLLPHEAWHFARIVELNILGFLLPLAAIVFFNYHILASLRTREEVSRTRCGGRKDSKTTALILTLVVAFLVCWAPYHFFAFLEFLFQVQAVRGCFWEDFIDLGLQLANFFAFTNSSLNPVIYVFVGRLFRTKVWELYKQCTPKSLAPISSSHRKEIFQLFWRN
Protocol: The agonistic or antagonistic action of substances can be quantified on the bradykinin receptor 1 (B1R) of the human and rat species with ectopically expressing cell lines (CHO K1 cells) and with the aid of a Ca^2+-sensitive dyestuff (Fluo-4) in a fluorescent imaging plate reader (FLIPR). The figure in % activation is based on the Ca^2+ signal after addition of Lys-Des-Arg^9-bradykinin (0.5 nM) or Des-Arg^9-bradykinin (100 nM). Antagonists lead to a suppression of the Ca^2+ inflow after addition of the agonist. % inhibition compared with the maximum achievable inhibition is stated.
The agonistic or antagonistic action of substances can be determined on the bradykinin receptor 1 (B1R) of the human and rat species with the following assay. In accordance with this assay, the Ca^2+ inflow through the channel is quantified with the aid of a Ca^2+-sensitive dyestuff (type Fluo-4, Molecular Probes Europe BV, Leiden, Holland) in a fluorescent imaging plate reader (FLIPR, Molecular Devices, Sunnyvale, USA).
Chinese hamster ovary cells (CHO K1 cells) transfected stably with the human B1R gene (hB1R cells) or the B1R gene of the rat (rB1R cells) are used. For functional studies, these cells are plated out on black 96-well plates with a clear base (BD Biosciences, Heidelberg, Germany or Greiner, Frickenhausen, Germany) in a density of 20,000-35,000 cells/well. The cells are left overnight at 37° C. and 5% CO2 in culture medium (hB1R cells: Nutrient Mixture Ham's F12, Gibco Invitrogen GmbH, Karlsruhe, Germany or DMEM, Sigma-Aldrich, Taufkirchen, Germany; rB1R cells: D-MEM/F12, Gibco Invitrogen GmbH, Karlsruhe, Germany) with 10 vol. % FBS (foetal bovine serum, Gibco Invitrogen GmbH, Karlsruhe, Germany or PAN Biotech GmbH, Aidenbach, Germany). On the following day, the cells are loaded for 60 min at 37° C. with 2.13 μM Fluo-4 (Molecular Probes Europe BV, Leiden Holland) in HBSS buffer (Hank's buffered saline solution, Gibco Invitrogen GmbH, Karlsruhe, Germany) with 2.5 mM probenecid (Sigma-Aldrich, Taufkirchen, Germany) and 10 mM HEPES (Sigma-Aldrich, Taufkirchen, Germany). The plates are then washed 2× with HBSS buffer, and HBSS buffer which additionally contains 0.1% BSA (bovine serum albumin; Sigma-Aldrich, Taufkirchen, Germany), 5.6 mM glucose and 0.05% gelatine (Merck KGaA, Darmstadt, Germany) is added. After a further incubation of 20 minutes at room temperature, the plates are inserted into the FLIPR for the Ca^2+ measurement. Alternatively, the plates are washed with buffer A (15 mM HEPES, 80 mM NaCl, 5 mM KCl, 1.2 mM CaCl2, 0.7 mM MgSO4, 2 g/l glucose, 2.5 mM probenecid), buffer A is added and the plates are loaded with 2.5 μM Fluo-4 and 0.025% Pluronic F127 (Sigma-Aldrich, Taufkirchen, Germany). Thereafter, the cells are washed 2× with buffer A and incubated for 30 minutes at room temperature with buffer A, which additionally contains 0.05% BSA and 0.05% gelatine, and thereafter inserted into the FLIPR for the Ca^2+ measurement. The Ca^2+-dependent fluorescence is measured here before and after addition of substances (λex=488 nm, λem=540 nm). Quantification is by measurement of the highest fluorescence intensity (FC, fluorescence counts) over time.
The FLIPR protocol consists of 2 additions of substance. Test substances (10 μM) are first pipetted on to the cells and the Ca^2+ inflow is compared with the control (hB1R: Lys-Des-Arg^9-bradykinin>=50 nM; rB1R: Des-Arg^9-bradykinin 10 μM). This gives the result in % activation based on the Ca^2+ signal after addition of Lys-Des-Arg^9-bradykinin (>=50 nM) or Des-Arg^9-bradykinin (10 μM). After incubation for 10-20 minutes, Lys-Des-Arg^9-bradykinin (hB1R) or Des-Arg^9-bradykinin (rB1R) in the concentration of the EC80 is applied and the inflow of Ca^2+ is likewise determined. Antagonists lead to a suppression of the Ca^2+ inflow. % inhibition compared with the maximum achievable inhibition is calculated.
For determination of the IC50 value, the substances are added in various concentrations. […]

[2] = molecular target: T2, rat B1R (bradykinin receptor 1) (Rattus norvegicus, UniProt P97583); assay: FLIPR Ca2+ assay (Fluo-4) on CHO K1 cells stably transfected with the B1R gene of the rat (rB1R cells): % inhibition at 10 μM / IC50, agonist Des-Arg9-bradykinin; assay type: cell-based; settings: CHO-K1, rat B1R
T2 construct: expressed in transfected cells; host or cells: CHO K1 cells
T2 sequence (P97583 1-337): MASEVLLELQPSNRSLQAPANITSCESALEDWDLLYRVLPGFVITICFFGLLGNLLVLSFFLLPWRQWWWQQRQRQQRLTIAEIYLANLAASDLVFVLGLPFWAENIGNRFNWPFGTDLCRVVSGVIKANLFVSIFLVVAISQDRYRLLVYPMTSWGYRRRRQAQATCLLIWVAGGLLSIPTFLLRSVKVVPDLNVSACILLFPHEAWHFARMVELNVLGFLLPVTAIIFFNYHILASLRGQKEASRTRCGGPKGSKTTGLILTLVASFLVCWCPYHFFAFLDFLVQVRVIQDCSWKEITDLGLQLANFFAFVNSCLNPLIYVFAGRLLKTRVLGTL
Procedure, shortened: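 Stable CHO K1 lines, Fluo-4 dye, probenecid-containing buffer. Cpd 10 μM or dose range, 10–20 min, then EC80 agonist (h: Lys-Des-Arg9-BK; r: Des-Arg9-BK). Readout peak FC; % inhibition vs max; IC50 from n=2–3, N≥2.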

| SMILES | inhibition at 10 µM [1] | inhibition at 10 µM [2] |
| --- | --- | --- |
| O=C(NC1CCc2ccc(C(=O)N3CCC4(CCN(c5ccnc(C(F)(F)F)n5)CC4)C3)cc21)c1ccccc1Cl (stereo not drawn) [Example H-51, 2-chloro-N-[6-[8-[2-(trifluoromethyl)-pyrimidin-4-yl]-3,8-diazaspiro[4.5]decane-3-carbonyl]-2,3-dihydro-1H-inden-1-yl]-benzamide] | 98% | 96% |
| O=C(N[C@@H]1CCc2ccc(C(=O)N3CCC4(CCC(C(=O)N[C@H]5CN6CCC5CC6)CC4)CC3)cc21)c1ccccc1Cl [Example H-52, N-[(5R)-1-Azabicyclo[2.2.2]octan-5-yl]-3-[(3R)-3-[(2-chloro-benzoyl)amino]-2,3-dihydro-1H-indene-5-carbonyl]-3-azaspiro[5.5]undecane-9-carboxylic acid amide] | 28% | 46% |
| Cc1ccccc1C(=O)N[C@@H]1CCc2ccc(C(=O)N3CCC4(CCN(c5ccncc5)CC4)C3)cc21 [Example H-53, 2-Methyl-N-[(1R)-6-(8-pyridin-4-yl-3,8-diazaspiro[4.5]decane-3-carobnyl)-2,3-dihydro-1H-inden-1-yl]-benzamide] | 100% | 104% |
| O=C(N[C@@H]1CCc2ccc(C(=O)N3CCCC4(CCN(c5ccncc5)CC4)C3)cc21)c1ccccc1Cl [Example H-54, 2-Chloro-N-[(1R)-6-(9-pyridin-4-yl-2,9-diazaspiro[5.5]undecane-2-carbonyl)-2,3-dihydro-1H-inden-1-yl]-benzamide] | 98% | 102% |
| O=C(N[C@@H]1CCc2ccc(C(=O)N3CCC4(CCC(N5CCn6ncnc6C5)CC4)CC3)cc21)c1ccccc1Cl [Example H-55, 2-Chloro-N-[(1R)-6-[9-(5,6,7,8-tetrahydro-[1,2,4]triazolo[1,5-a]pyrazin-7-yl)-3-azaspiro[5.5]undecane-3-carbonyl]-2,3-dihydro-1H-inden-1-yl]-benzamide] | 42% | 87% |
| COc1ccc2cc(C(=O)N[C@@H]3CCc4ccc(C(=O)N5CCC6(CCN(c7ccncc7)CC6)C5)cc43)ccc2c1 [Example H-56, 6-Methoxy-N-[(1R)-6-(8-pyridin-4-yl-3,8-diazaspiro[4.5]decane-3-carbonyl)-2,3-dihydro-1H-inden-1-yl]-naphthalene-2-carboxylic acid amide] | 94% | 68% |
| O=C(N[C@@H]1CCOc2ccc(C(=O)N3CCC4(CC3)CCN(c3ccncc3)C4)cc21)c1ccccc1Cl [Example H-57, 2-Chloro-N-[(4R)-6-(3-pyridin-4-yl-3,8-diazaspiro[4.5]decane-8-carbonyl)-3,4-dihydro-2H-chromen-4-yl]-benzamide] | 99% | 105% |
| O=C(N[C@@H]1CCOc2ccc(C(=O)N3CCC4(CC3)CCN(c3ccncc3)CC4)cc21)c1ccccc1Cl [Example H-58, 2-Chloro-N-[(4R)-6-(9-pyridin-4-yl-3,9-diazaspiro[5.5]undecane-3-carbonyl)-3,4-dihydro-2H-chromen-4-yl]-benzamide] | 99% | 106% |
| Cc1cc2c(cc1C(=O)N1CCC3(CC1)CCN(c1ccncc1)C3)[C@H](NC(=O)c1ccccc1Cl)CC2 [Example H-59, 2-Chloro-N-[(1R)-5-methyl-6-(3-pyridin-4-yl-3,8-diazaspiro[4.5]decane-8-carbonyl)-2,3-dihydro-1H-inden-1-yl]-benzamide] | 99% | 105% |
| COc1ccc(C(=O)N[C@@H]2CCc3ccc(C(=O)N4CCC5(CC4)CCN(c4ccncc4)C5)cc32)c(Cl)c1 [Example H-60, 2-Chloro-4-methoxy-N-[(1R)-6-(3-pyridin-4-yl-3,8-diazaspiro[4.5]decane-8-carbonyl)-2,3-dihydro-1H-inden-1-yl]-benzamide] | 82% | 101% |
| COc1ccc(C(=O)N[C@@H]2CCc3ccc(C(=O)N4CCC5(CCN(c6ccncc6)CC5)C4)cc32)c(C)c1 [Example H-61, 4-Methoxy-2-methyl-N-[(1R)-6-(8-pyridin-4-yl-3,8-diazaspiro[4.5]decane-3-carbonyl)-2,3-dihydro-1H-inden-1-yl]-benzamide] | 100% | 104% |
| O=C(N[C@@H]1CCc2ccc(C(=O)N3CCC4(CCC(C(=O)N[C@@H]5CN6CCC5CC6)CC4)CC3)cc21)c1ccccc1Cl [Example H-62, N-[(5S)-1-Azabicyclo[2.2.2]octan-5-yl]-3-[(3R)-3-[(2-chloro-benzoyl)amino]-2,3-dihydro-1H-indene-5-carbonyl]-3-azaspiro[5.5]undecane-9-carboxylic acid amide] | 30% | 102% |
| COc1ccc(C(=O)N[C@@H]2CCc3ccc(C(=O)N4CCC5(CCN(c6ccncc6)CC5)C4)cc32)c(Cl)c1 [Example H-63, 2-Chloro-4-methoxy-N-[(1R)-6-(8-pyridin-4-yl-3,8-diazaspiro[4.5]decane-3-carbonyl)-2,3-dihydro-1H-inden-1-yl]-benzamide] | 100% | 104% |
| O=C(N[C@@H]1CCc2cc(F)c(C(=O)N3CCC4(CCN(c5ccncc5)CC4)C3)cc21)c1ccccc1Cl [Example H-64, 2-Chloro-N-[(1R)-5-fluoro-6-(8-pyridin-4-yl-3,8-diazaspiro[4.5]decane-3-carbonyl)-2,3-dihydro-1H-inden-1-yl]-benzamide hydrochloride] | 100% | 105% |
| O=C(N[C@@H]1CCOc2cc(F)c(C(=O)N3CCC4(CCN(c5ccncc5)CC4)C3)cc21)c1ccccc1Cl [Example H-65, 2-Chloro-N-[(4R)-7-fluoro-6-(8-pyridin-4-yl-3,8-diazaspiro[4.5]decane-3-carbonyl)-3,4-dihydro-2H-chromen-4-yl]-benzamide] | 100% | 105% |
